From US20250249051A1, “MICROBIOME COMPOSITION FOR IMPROVING MUSCLE STRENGTH USING HEAT-TREATED FERMENTED CULTURE COMPLEX OF LACTIPLANTIBACILLUS PLANTARUM KM2” (KOOKMINBIO, CORP., priority 2024, published 2025) come the findings set out here.

Marks after values point to notes of the source that are not given here.

For data set [1], the system named is C57BL/6J mice. Kind of data set: Body weight and body composition (DEXA) in dexamethasone-induced muscular atrophy mice. Conditions: week 7, oral; KLP-KM2 900 and 1800 mg/kg, OXM 50 mg/kg; vs DEX group. Type of data set: in vivo. The method, then:
(§1) 7-week-old male C57BL/6J mice purchased from OrientBio were used as experimental animals. The environment of an animal breeding room was controlled at temperature of 21±1° C. with relative humidity of 40˜60% and light/dark cycles of 12 hours/day, and feed and drinking water were allowed to be consumed freely. This test was approved by the Institutional Animal Care and Use Committee in Kookmin University (KMU-2023-05) and carried out in accordance with the standard operating instructions. […] Feed ingestion amount and body weight were measured once every two weeks.
Dual energy X-ray absorptiometry (DEXA; Medikors, Seongnam, Korea) was used at week 7 before the sacrifice of experimental animals to measure the body composition of mice, followed by analysis on the changes in muscle mass relative to the body weight.

The test system of a further data set is intestinal microflora. Nature of the data set: Intestinal microflora analysis in animal model (shotgun metagenome sequencing). The format is in vivo, mice. Conditions: genus level, compared to the DEX group. The method, then: as §1
To identify the effect of the sample on the intestinal microbiota of the animal model, the appendix was removed after animal sacrifice, DNA was extracted, and analysis was performed using Shotgun metagenome sequencing. The extracted DNA was subjected to adapter ligation using the Truseq Nano DNA prep kit for sequencing, and then 8 cycles of PCR were performed to create a library. […] Using Trimmomatic v0.39 (AM Bolger, M Lohse, B Usadel, 2014) for raw reads, removal of low-quality reads and adapters was followed, and in order to eliminate PhiX sequences added during sequencing, trimmed reads were aligned to the PhiX reference genome (NC_001422.1) using BWA v0.7.17-r1188 (Li, Heng, 2013) and then removed with SAMtools v1.15.1 (Li, Heng, et al., 2009). […]

Data set [2] deals with C57BL/6J mice. Nature of the data set: Biochemical analysis of serum in dexamethasone-induced muscular atrophy mice. Type of data set: in vivo. Conditions: oxymetholone 50 mg/kg oral 8 weeks, DEX mice. Here is the method:
as §1
After sacrificing the mice, blood was drawn from the heart and immediately centrifuged (3,000×g, 10 min, 4° C.) to separate the plasma. Creatine phosphokinase (CPK), lactate dehydrogenase (LDH), aspartate aminotransferase (AST), alanine aminotransferase (ALT), and blood urea nitrogen (BUN) were measured using a chemical analyzer (Fuji DRI-CHEM 3500i, Fuji Photo Film, Ltd., Tokyo, Japan).

In the case of `C[C@]12C/C(=C/O)C(=O)C[C@@H]1CC[C@@H]1[C@@H]2CC[C@@]2(C)[C@H]1CC[C@]2(C)O` [OXM, oxymetholone], the “muscle mass to the total body weight (DEXA)” value in the data set with C57BL/6J mice [1] is recorded as “relatively significant increase compared to the DEX group”. For the same molecule, the “proportion of Akkermansia” value in the data set on intestinal microflora is given as “significantly reduced”. Moreover, in the data set on C57BL/6J mice [2], the ALT was 43.75 ± 7.96 ^a U/L, the AST is listed as 58.88 ± 11.73 ^a U/L, the BUN was 24.74 ± 1.47 ^a mg/dL and the CPK is recorded as 99.13 ± 35.13 ^b U/L. Further, the LDH in the data set on C57BL/6J mice [2] is reported as 211.38 ± 46.99 ^b U/L.
